Assay results as given in patent EP2768830B1, “APOPTOSIS-INDUCING AGENTS FOR THE TREATMENT OF CANCER AND IMMUNE AND AUTOIMMUNE DISEASES” (AbbVie Inc., priority 2011, dated 2013).

Experiments:
[1] = test system: mouse FL5.12 cells transfected with Bcl-XL; assay: FL5.12 cellular assay (cell viability, CellTiter-Glo); format: cell-based; settings: Mus musculus; FL5.12 cells transfected with Bcl-XL, IL-3-depleted, 3% FBS assay media, 24 hours, CellTiter-Glo; read-out: FL5.12 Bcl-xL, - IL3, EC 50;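 further: each EC50 determination derived from duplicate measurements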
GST-Bcl-xL = GST-Bcl-xL (Homo sapiens, UniProt Q07817); settings: read-out: TR-FRET binding Bcl-xL Ki
GST-Bcl-xL, sequence (Q07817 whole entry): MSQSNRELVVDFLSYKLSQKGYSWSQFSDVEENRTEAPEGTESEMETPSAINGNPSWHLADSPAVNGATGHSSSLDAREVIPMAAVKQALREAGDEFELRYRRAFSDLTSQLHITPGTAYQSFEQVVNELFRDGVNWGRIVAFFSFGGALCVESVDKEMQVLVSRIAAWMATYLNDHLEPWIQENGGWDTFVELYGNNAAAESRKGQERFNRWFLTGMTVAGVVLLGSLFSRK

| SMILES | EC50 [1] | Ki (GST-Bcl-xL) |
| --- | --- | --- |
| COCCOC1(Cn2c(C#N)cc(-c3ccc(N4CCc5cccc(C(=O)Nc6nc7ccccc7s6)c5C4)nc3C(=O)O)c2C)CCCCCC1 [Example 172, 6-[8-(1,3-benzothiazol-2-ylcarbamoyl)-3,4-dihydroisoquinolin-2(1H)-yl]-3-(5-cyano-1-{[1-(2-methoxyethoxy)cycloheptyl]methyl}-2-methyl-1H-pyrrol-3-yl)pyridine-2-carboxylic acid] | 0.001 µM | < 0.0001 µM |
| Cc1ccc(-c2ccc(N3CCc4cccc(C(=O)Nc5nc6ccccc6s5)c4C3)nc2C(=O)O)cc1Oc1ccccc1 [Example 108, 6-[8-(1,3-benzothiazol-2-ylcarbamoyl)-3,4-dihydroisoquinolin-2(1H)-yl]-3-(4-methyl-3-phenoxyphenyl)pyridine-2-carboxylic acid] | > 1 µM | 0.009 µM |
| Cc1c(OC2CCCC(C)(C)C2)cccc1-c1ccc(N2CCc3cccc(C(=O)Nc4nc5ccccc5s4)c3C2)nc1C(=O)O (centres unmarked) [Example 121, 6-[8-(1,3-benzothiazol-2-ylcarbamoyl)-3,4-dihydroisoquinolin-2(1H)-yl]-3-{3-[(3,3-dimethylcyclohexyl)oxy]-2-methylphenyl}pyridine-2-carboxylic acid] | 0.082 µM | 0.0001 µM |
| Cc1c(-c2ccc(N3CCc4cccc(C(=O)Nc5nc6ccccc6s5)c4C3)nc2C(=O)O)cc(C#N)n1Cc1ccccc1 [Example 129, 6-[8-(1,3-benzothiazol-2-ylcarbamoyl)-3,4-dihydroisoquinolin-2(1H)-yl]-3-(1-benzyl-5-cyano-2-methyl-1H-pyrrol-3-yl)pyridine-2-carboxylic acid] | 0.018 µM | < 0.0001 µM |
| COCC1(Cn2ncc(-c3ccc(N4CCc5cccc(C(=O)Nc6nc7ccccc7s6)c5C4)nc3C(=O)O)c2C)CCCCC1 [Example 144, 6-[8-(1,3-benzothiazol-2-ylcarbamoyl)-3,4-dihydroisoquinolin-2(1H)-yl]-3-(1-{[1-(methoxymethyl)cyclohexyl]methyl}-5-methyl-1H-pyrazol-4-yl)pyridine-2-carboxylic acid] | 0.213 µM | < 0.0001 µM |
| CN(C)c1cccc(Cn2cc(-c3ccc(N4CCc5cccc(C(=O)Nc6nc7ccccc7s6)c5C4)nc3C(=O)O)cn2)c1 [Example 34, 6-[8-(1,3-benzothiazol-2-ylcarbamoyl)-3,4-dihydroisoquinolin-2(1H)-yl]-3-{1-[3-(dimethylamino)benzyl]-1H-pyrazol-4-yl}pyridine-2-carboxylic acid] | 0.907 µM | 0.023 µM |
| O=C(Nc1nc2ccccc2s1)c1cccc2c1CN(c1ccc(-c3cnn(C(CC4CCCCC4)c4ccccc4)c3)c(C(=O)O)n1)CC2 (centres unmarked) [Example 96, 6-[8-(1,3-benzothiazol-2-ylcarbamoyl)-3,4-dihydroisoquinolin-2(1H)-yl]-3-[1-(2-cyclohexyl-1-phenylethyl)-1H-pyrazol-4-yl]pyridine-2-carboxylic acid] | 0.62 µM | 0.012 µM |
| O=C(Nc1nc2ccccc2s1)c1cccc2c1CN(c1ccc(-c3ccn(C(=O)c4ccccc4)c3)c(C(=O)O)n1)CC2 [Example 127, 6-[8-(1,3-benzothiazol-2-ylcarbamoyl)-3,4-dihydroisoquinolin-2(1H)-yl]-3-(1-benzoyl-1H-pyrrol-3-yl)pyridine-2-carboxylic acid] | > 1 µM | 0.002 µM |
| COC1(Cn2nnc(-c3ccc(N4CCc5cccc(C(=O)Nc6nc7ccccc7s6)c5C4)nc3C(=O)O)c2C)CCCC(C)(C)C1 (centres unmarked) [Example 166, 6-[8-(1,3-benzothiazol-2-ylcarbamoyl)-3,4-dihydroisoquinolin-2(1H)-yl]-3-{1-[(1-methoxy-3,3-dimethylcyclohexyl)methyl]-5-methyl-1H-1,2,3-triazol-4-yl}pyridine-2-carboxylic acid] | 0.03 µM | < 0.0001 µM |
| CN(C)c1ccccc1Cn1cc(-c2ccc(N3CCc4cccc(C(=O)Nc5nc6ccccc6s5)c4C3)nc2C(=O)O)cn1 [Example 80, 6-[8-(1,3-benzothiazol-2-ylcarbamoyl)-3,4-dihydroisoquinolin-2(1H)-yl]-3-{1-[2-(dimethylamino)benzyl]-1H-pyrazol-4-yl}pyridine-2-carboxylic acid] | 0.253 µM | 0.004 µM |
